According to ChEMBL document CHEMBL3885881, “DrugMatrix”:

Organism: Rattus norvegicus
Test: DrugMatrix - Regimen: Daily Repeat
Format: toxicity, organism-based, Sprague-Dawley
Set-up: regimen Daily Repeat, gender Male, age 6-8 weeks
Conditions: in vivo, po, 430 mg/kg, route oral GAVAGE, dose level High, vehicle .5 % CMC; for ABSOLUTE BASOPHIL / ABSOLUTE EOSINOPHIL / ABSOLUTE LYMPHOCYTE / ABSOLUTE MONOCYTE / ABSOLUTE SEGMENTED NEUTROPHIL / BASOPHIL / EOSINOPHIL / ERYTHROCYTE COUNT / HEMATOCRIT / HEMOGLOBIN / LEUKOCYTE COUNT / LYMPHOCYTE / MEAN CORPUSCULAR HEMOGLOBIN / MEAN CORPUSCULAR HEMOGLOBIN CONCENTRATION / MEAN CORPUSCULAR VOLUME / MONOCYTE / NEUTROPHIL / NUCLEATED RED BLOOD CELLS / PLATELET COUNT: tissue Blood; for ALANINE AMINOTRANSFERASE / ALBUMIN / ALKALINE PHOSPHATASE / ASPARTATE AMINOTRANSFERASE / BLOOD UREA NITROGEN / CARBON DIOXIDE / CHLORIDE / CHOLESTEROL / CREATININE / GLUCOSE / LACTATE DEHYDROGENASE / LIPASE / PHOSPHORUS / POTASSIUM / SODIUM / TOTAL BILIRUBIN / TOTAL PROTEIN / URIC ACID: tissue Plasma

## ClC(Cl)Br [BROMODICHLOROMETHANE]
72 h, time 3 day
  ABSOLUTE BASOPHIL: 0 CELLS/uL
  ABSOLUTE EOSINOPHIL: 216.67 CELLS/uL
  ABSOLUTE LYMPHOCYTE: 11508.33 CELLS/uL
  ABSOLUTE MONOCYTE: 948.33 CELLS/uL
  ABSOLUTE SEGMENTED NEUTROPHIL: 1326.67 CELLS/uL
  BASOPHIL: 0%
  EOSINOPHIL: 1.33%
  ERYTHROCYTE COUNT: 6.13 x10E6/uL
  HEMATOCRIT: 37.07%
  HEMOGLOBIN: 13.87 G/DL
  LEUKOCYTE COUNT: 14 x10E3/uL
  LYMPHOCYTE: 82.33%
  MEAN CORPUSCULAR HEMOGLOBIN: 22.63 pg
  MEAN CORPUSCULAR HEMOGLOBIN CONCENTRATION: 37.4 G/DL
  MEAN CORPUSCULAR VOLUME: 60.47 fL
  MONOCYTE: 6.67%
  NEUTROPHIL: 9.67%
  NUCLEATED RED BLOOD CELLS: 0 /100WBC
  PLATELET COUNT: 1186 x10E3/uL
  ALANINE AMINOTRANSFERASE: 73.33 u/L
  ALBUMIN: 4.57 G/DL
  ALKALINE PHOSPHATASE: 459.67 u/L
  ASPARTATE AMINOTRANSFERASE: 106 u/L
  BLOOD UREA NITROGEN: 18.67 mg/dL
  CARBON DIOXIDE: 23 mmol/L
  CHLORIDE: 104.67 MEQ/L
  CHOLESTEROL: 72 mg/dL
  CREATININE: 0.22 mg/dL
  GLUCOSE: 124.33 mg/dL
  LACTATE DEHYDROGENASE: 655 u/L
  LIPASE: 9 u/L
  PHOSPHORUS: 12.47 mg/dL
  POTASSIUM: 6.06 MEQ/L
  SODIUM: 141.67 MEQ/L
  TOTAL BILIRUBIN: 0.27 mg/dL
  TOTAL PROTEIN: 5.93 G/DL
  URIC ACID: 1.9 mg/dL
120 h, time 5 day
  ABSOLUTE BASOPHIL: 0 CELLS/uL
  ABSOLUTE EOSINOPHIL: 20 CELLS/uL
  ABSOLUTE LYMPHOCYTE: 7894 CELLS/uL
  ABSOLUTE MONOCYTE: 268.67 CELLS/uL
  ABSOLUTE SEGMENTED NEUTROPHIL: 750.67 CELLS/uL
  BASOPHIL: 0%
  EOSINOPHIL: 0.33%
  ERYTHROCYTE COUNT: 6.18 x10E6/uL
  HEMATOCRIT: 35.9%
  HEMOGLOBIN: 13 G/DL
  LEUKOCYTE COUNT: 8.93 x10E3/uL
  LYMPHOCYTE: 88.67%
  MEAN CORPUSCULAR HEMOGLOBIN: 21.07 pg
  MEAN CORPUSCULAR HEMOGLOBIN CONCENTRATION: 36.23 G/DL
  MEAN CORPUSCULAR VOLUME: 58.1 fL
  MONOCYTE: 2.67%
  NEUTROPHIL: 8.33%
  NUCLEATED RED BLOOD CELLS: 0 /100WBC
  PLATELET COUNT: 970.33 x10E3/uL
  ALANINE AMINOTRANSFERASE: 85 u/L
  ALBUMIN: 4.6 G/DL
  ALKALINE PHOSPHATASE: 399.33 u/L
  ASPARTATE AMINOTRANSFERASE: 105 u/L
  BLOOD UREA NITROGEN: 12.67 mg/dL
  CARBON DIOXIDE: 33.67 mmol/L
  CHLORIDE: 103.67 MEQ/L
  CHOLESTEROL: 63.33 mg/dL
  CREATININE: 0.21 mg/dL
  GLUCOSE: 116 mg/dL
  LACTATE DEHYDROGENASE: 107.67 u/L
  LIPASE: 9.33 u/L
  PHOSPHORUS: 10.87 mg/dL
  POTASSIUM: 5.17 MEQ/L
  SODIUM: 146.4 MEQ/L
  TOTAL BILIRUBIN: 0.23 mg/dL
  TOTAL PROTEIN: 6.17 G/DL
  URIC ACID: 0.8 mg/dL
[…], time 14 day
  ABSOLUTE BASOPHIL: 0 CELLS/uL
  ABSOLUTE EOSINOPHIL: 120.4 CELLS/uL
  ABSOLUTE LYMPHOCYTE: 11064.6 CELLS/uL
  ABSOLUTE MONOCYTE: 372 CELLS/uL
  ABSOLUTE SEGMENTED NEUTROPHIL: 2303 CELLS/uL
  BASOPHIL: 0%
  EOSINOPHIL: 0.8%
  ERYTHROCYTE COUNT: 6.18 x10E6/uL
  HEMATOCRIT: 34.92%
  HEMOGLOBIN: 12.94 G/DL
  LEUKOCYTE COUNT: 13.86 x10E3/uL
  LYMPHOCYTE: 80.8%
  MEAN CORPUSCULAR HEMOGLOBIN: 20.96 pg
  MEAN CORPUSCULAR HEMOGLOBIN CONCENTRATION: 37.08 G/DL
  MEAN CORPUSCULAR VOLUME: 56.58 fL
  MONOCYTE: 2.6%
  NEUTROPHIL: 15.8%
  NUCLEATED RED BLOOD CELLS: 0 /100WBC
  PLATELET COUNT: 862.2 x10E3/uL
  ALANINE AMINOTRANSFERASE: 65.6 u/L
  ALBUMIN: 4.56 G/DL
  ALKALINE PHOSPHATASE: 422.2 u/L
  ASPARTATE AMINOTRANSFERASE: 104.6 u/L
  BLOOD UREA NITROGEN: 19.6 mg/dL
  CARBON DIOXIDE: 25.8 mmol/L
  CHLORIDE: 106.8 MEQ/L
  CHOLESTEROL: 71.4 mg/dL
  CREATININE: 0.25 mg/dL
  GLUCOSE: 140.6 mg/dL
  LACTATE DEHYDROGENASE: 190 u/L
  LIPASE: 9.2 u/L
  PHOSPHORUS: 10.96 mg/dL
  POTASSIUM: 5.79 MEQ/L
  SODIUM: 145.9 MEQ/L
  TOTAL BILIRUBIN: 0.16 mg/dL
  TOTAL PROTEIN: 6.14 G/DL
  URIC ACID: 1.44 mg/dL
